According to article PMC10316653 (iScience, 2023):
*1 amine or outer side, *2 acyl side, *3 side chain or, on linkers, in order; H or OH if unused. Where a SMILES comes first, the peptide text is derived from it. Bridges are numbered along the chain shown (N, C = ends). [ ]: non-standard residue; d: D form. X1 = CC(=O)NC(C(=O)OC(C(C)C)C(N[*:1])C(=O)[*:2])C(O)C(C)C; PhLac = O=C(O)[CH](O)Cc1ccccc1; NMeT = CN[CH](C(=O)O)[CH](C)O; NMeA = CN[CH](C)C(=O)O; NMeDha = C=C(NC)C(=O)O

Key:
[1] = biological target: T1, A2BAR (Rattus norvegicus, UniProt P29276); test: cAMP accumulation assay in H9C2 cells endogenously expressing the A2BAR; assay type: cell-based; settings: for effect on PMA-induced cAMP accumulation: naive H9C2 cells, antagonist 1 µM
T1 sequence (P29276 1-332): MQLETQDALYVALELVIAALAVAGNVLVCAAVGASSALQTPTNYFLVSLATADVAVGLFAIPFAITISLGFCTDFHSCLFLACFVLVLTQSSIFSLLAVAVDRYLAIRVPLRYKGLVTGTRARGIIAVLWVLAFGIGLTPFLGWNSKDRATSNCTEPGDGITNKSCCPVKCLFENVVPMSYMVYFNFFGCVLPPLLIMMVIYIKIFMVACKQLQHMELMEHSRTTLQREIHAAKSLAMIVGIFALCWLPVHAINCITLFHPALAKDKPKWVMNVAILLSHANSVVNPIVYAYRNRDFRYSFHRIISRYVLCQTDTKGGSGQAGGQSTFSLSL

[2] = biological target: T2, A2BAR (Homo sapiens, UniProt P29275); test: cAMP accumulation assay in naive HEK293 cells; assay type: cell-based
T2 sequence (P29275 1-332): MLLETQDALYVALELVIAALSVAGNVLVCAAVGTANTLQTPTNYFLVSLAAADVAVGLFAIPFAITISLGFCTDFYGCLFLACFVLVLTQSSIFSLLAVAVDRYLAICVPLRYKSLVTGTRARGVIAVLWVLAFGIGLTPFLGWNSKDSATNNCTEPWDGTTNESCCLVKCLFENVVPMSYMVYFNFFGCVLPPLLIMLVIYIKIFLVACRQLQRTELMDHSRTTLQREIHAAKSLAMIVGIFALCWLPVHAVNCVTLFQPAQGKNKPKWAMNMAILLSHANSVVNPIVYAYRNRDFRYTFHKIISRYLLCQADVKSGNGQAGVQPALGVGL

[3] = biological target: T2, A2BAR; test: cAMP accumulation assay in HEK293-A2B cells; assay type: cell-based; settings: HEK293-A2B cells; for effect on PKC-induced A2BAR activation (cAMP): inhibitor 20 min before PMA (Figure 10C)
[4] = system: ERK1/2; test: ERK1/2 activity assay in H9C2 cells; assay type: cell-based, rat; settings: 1 μM added 20 min before PMA 1 μM
[5] = biological target: T2, A2BAR; test: Intracellular calcium mobilization assay in HEK293-A2B cells; assay type: cell-based
[6] = system: H9C2 cells; test: Intracellular calcium mobilization assay in H9C2 cells; assay type: cell-based, rat
[7] = biological target: T2, A2BAR; test: Radioligand binding to membranes from HEK293-A2B cells; settings: membranes from HEK293-A2B cells, 1 μM
[8] = naive HEK293 cells, inhibitor 1 μM, PMA 1 μM, BAY 10 μM

## N#Cc1c(N)nc(SCC(N)=O)c(C#N)c1-c1ccc(OCC2CC2)cc1 [BAY]
[1]; H9C2 cells, agonist 20 min
  induction of cAMP accumulation: induced robust cAMP accumulation

## CN(C)CCCn1cc(C2=C(c3c[nH]c4ccccc34)C(=O)NC2=O)c2ccccc21 [GF109203X]
[2]; naive HEK293 cells, in the presence of 1 μM GF109203X
  remaining enhancement: 26%
[2]; [8]
  effect on PKC (PMA)-induced enhancement of BAY-induced cAMP accumulation: blocked PKC-induced enhancement
  inhibition of PKC-induced enhancement of BAY-induced cAMP accumulation: 74%
[3]
  effect on PKC-induced A2BAR activation (cAMP): significantly inhibited

## COc1ccc2c(c1)c(C1=C(c3c[nH]c4ccccc34)C(=O)NC1=O)cn2CCCN(C)C [GO6983]
[2]; [8]
  effect on PKC (PMA)-induced enhancement of BAY-induced cAMP accumulation: blocked PKC-induced enhancement
[4]
  effect on PMA-induced ERK1/2 phosphorylation: diminished
[1]; H9C2 cells, 1 μM, no PMA
  effect on BAY-induced cAMP accumulation: did not affect BAY-induced cAMP accumulation
[5]; GO6983 1 μM before PMA 1 μM
  effect on PMA inhibition of NECA-induced calcium mobilization: completely blocked
[3]; GO6983 1 μM
  effect on PKC- and NECA-induced cAMP accumulation: blocked PKC- but not NECA-induced cAMP accumulation
[3]
  effect on PKC-induced A2BAR activation (cAMP): significantly inhibited
[6]; GO6983 1 μM 20 min before PMA 1 μM
  effect on PMA inhibition of UTP calcium response: completely reversed

## O=S(=O)(NCCNC/C=C/c1ccc(Br)cc1)c1cccc2cnccc12 [H89]
[2]; HEK293 cells, H89 10 μM, PMA 1 μM
  effect on PMA enhancement of cAMP accumulation: unaffected
[4]
  effect on PMA-induced ERK1/2 phosphorylation: not affected

## CCCn1c(=O)c2[nH]c(-c3ccc(OCC(=O)Nc4ccc(C#N)cc4)cc3)nc2n(CCC)c1=O [MRS1754]
[1]
  effect on PMA-induced cAMP accumulation: inhibited
[3]
  KB against BAY more potent than IC50 against PKC: over 100 fold
[7]
  displacement of specific binding of [3H]NECA (25 nM): 100%

## CSc1nc(N)c2ncn([C@H]3[C@H](O)[C@H](O)[C@]4(COP(=O)([O-])OP(=O)([O-])[O-])C[C@H]34)c2n1.[Na+].[Na+].[Na+] [MRS2365, [[(1R,2R,3S,4R,5S)-4-[6-amino-2-(methylthio)-9H-purin-9-yl]-2,3-dihydroxybicyclo[3.1.0]hex-1-yl]methyl] diphosphoric acid monoester trisodium salt]
[3]; 1 μM, 20 min before NECA
  effect of pretreatment on A2BAR (NECA)-mediated cAMP accumulation: did not show any effect

## CCNC(=O)[C@H]1O[C@@H](n2cnc3c(N)ncnc32)[C@H](O)[C@@H]1O [NECA, adenosine-5′-N-ethyluronamide]
[6]
  induction of calcium mobilization: did not induce calcium mobilization

## CCCn1c(=O)[nH]c2nc(-c3ccc(S(=O)(=O)N4CCN(c5ccc(Cl)cc5)CC4)cc3)[nH]c2c1=O [PSB603]
[4]
  effect on PMA-induced ERK1/2 phosphorylation: not affected
[1]
  effect on PMA-induced cAMP accumulation: inhibited
[5]; 1 μM pretreatment 20 min
  effect on NECA-induced intracellular calcium mobilization: inhibited

## CN(C)C[C@H]1CCn2c(c(C3=C(c4cn(C)c5ccccc45)C(=O)NC3=O)c3ccccc32)C1 [RO320432]
[2]; [8]
  effect on PKC (PMA)-induced enhancement of BAY-induced cAMP accumulation: blocked PKC-induced enhancement

## CC(C)[C@H]1C(=O)N[C@H](CO)Cc2cc(NC(=O)/C=C/C=C/c3ccc(C(F)(F)F)cc3)ccc2N1C [TPPB]
[2]; HEK293 cells, TPPB 1 µM 40 min
  effect of pretreatment on BAY-induced cAMP accumulation: also enhanced the function of BAY

## O=c1ccn([C@@H]2O[C@H](COP(=O)(O)OP(=O)(O)OP(=O)(O)O)[C@@H](O)[C@H]2O)c(=O)[nH]1 [UTP]
[6]
  induction of calcium mobilization: induced a robust calcium response

## C=C1C(=O)NC(C)C(=O)N(C)C(C)C(=O)NC(C(OC(=O)C(NC(C)=O)C(O)C(C)C)C(C)C)C(=O)N(C)C(C(C)OC)C(=O)OC(C)C(NC(C)=O)C(=O)OC(Cc2ccccc2)C(=O)N1C (centres unmarked) [YM254890] (Ac-T[PhLac][NMeDha]A[NMeA][X1][NMeT](Me); ester 1-C; configuration not given here)
[6]; 1 μM pretreatment 20 min
  inhibition of UTP-induced calcium response: completely inhibited
